Assay results from US20160083397A1, “PARTHENOLIDE DERIVATIVES AND THEIR MODULATION OF PROCESSES CONTROLLED BY REGULATED TRANSLATION” (THE BOARD OF TRUSTEES OF THE UNIVERSITY OF ARKANSAS, priority 2013, published 2016).

What was measured:
OVCAR-3 = conditions: for GI50: OVCAR-3, Ovarian Cancer
SK-OV-3 = conditions: for GI50: SK-OV-3, Ovarian Cancer
BT-549 = conditions: for GI50: BT-549, Breast Cancer
UO-31 = conditions: for GI50: UO-31, Renal Cancer
OVCAR-4 = conditions: for GI50: OVCAR-4, Ovarian Cancer
CAKI-1 = conditions: for GI50: CAKI-1, Renal Cancer
NCI-H226 = conditions: for GI50: NCI-H226, Lung Cancer
UACC-257 = conditions: for GI50: UACC-257, Melanoma
SNB-75 = conditions: for GI50: SNB-75, CNS Cancer
SN12C = conditions: for GI50: SN12C, Renal Cancer
HT29 = conditions: for GI50: HT29, Colon Cancer
Xenopus oocytes = assay: Xenopus oocyte maturation assay; type: cell-based; conditions: for Xenopus Oocyte Maturation Assay, Without Progesterone: no progesterone, activator = able to induce GVBD in the absence of added progesterone; for Xenopus Oocyte Maturation Assay, With Progesterone: test compound 100 μM, progesterone 2 μg/mL, inhibitor = slowed rate of progesterone-dependent GVBD by 20% or more
Text: An in vivo Xenopus oocyte maturation assay was used to screen the compounds for their ability to modulate the activity of cell cycle control proteins, mRNA translational control proteins, and/or proteins involved in signaling pathways. In this assay, oocyte maturation (or cell cycle progression) is monitored phenotypically using an image capture system. Oocyte maturation is correlated with the appearance of a white spot at the animal pole of the darkly pigmented animal hemisphere of the oocyte. The white spot appears because the germinal vesicle (i.e., the large nucleus of the oocyte) migrates to the animal pole prior to meiotic germinal vesicle breakdown (GVBD).
Immature stage VI Xenopus oocytes were transferred to wells of a flat bottom 96-well plate containing about 178 μL of L15 culture media. The oocytes were transferred using wide mouth 200 μL pipette tips with minimal transfer of culture medium (e.g., about 20 μL). Generally, the oocytes oriented with the pigmented animal hemisphere facing up due to the higher density of the yolk-containing vegetal hemisphere. Incorrectly orientated oocytes were gently manipulated using a drawn-out capillary tube to rotate them into the correct orientation.
Forty-four test compounds were dissolved in DMSO to make 100× stock solutions. The test compounds were added to the appropriate wells at a final concentration of 100 μM (and 1% DMSO). Control oocytes were exposed to 1% DMSO only (generally the first and last wells of a plate contained the untreated, control oocytes). Sixteen hours later, progesterone was added to each well to stimulate progesterone-dependent oocyte maturation. For this, 2 μL of 1000× stock solution (2 mg/mL in ethanol) was added to the appropriate wells to yield a final concentration of 2 μg/mL. The rate of maturation in the control oocytes (i.e., those in the first and last wells) served as an intra-assay control for time taken for progesterone addition across the multi-well plate.
The 96-well plate was imaged from above (i.e., top-down) using a 36-megapixel Nikon D800 SLR camera with an AF Micro Nikkor 60 mm, f/2.8 lens, mounted on a dedicated copy stand (with adjustable flanking light sources). The plate was imaged prior to and after addition of progesterone (i.e., images were taken at regular intervals over a period of 7 hours). The high resolution images were digitally zoomed after capture to analyze the maturation status of oocytes in individual wells of the plate. Test compounds that slowed the rate of progesterone-dependent GVBD by 20% or more were classified as inhibitors (assessed relative to the time 50% of the population of control, vehicle treated oocytes had undergone GVBD (GVBD50)).
To determine whether the test compounds were able to activate oocyte maturation in a progesterone-independent manner, oocytes were incubated in the presence of the test compound (dissolved in DMSO) or DMSO only. The oocytes were imaged at regular intervals for the evidence of GVBD, or subsets of oocytes were removed at predetermined times and the activation status of key cell cycle control proteins (e.g., pMAP kinase, pCcd2, etc.) was analyzed by Western blotting. For example, activation of pMAP kinase is associated with increased phosphorylation whereas activation of pCdc2 is associated with decreased phosphorylation. Compounds were classified as an activator if they were able to induce GVBD in the absence of added progesterone. Further, compounds were classified as accelerators if they accelerated the rate of progesterone-stimulated GVBD, but were unable to induce GVBD in the absence of progesterone. The criteria for test compounds to be considered accelerators is that they must increase the rate of progesterone-dependent GVBD by 20% or more at one dose (assessed relative to the time 50% of the population of control, vehicle treated oocytes had undergone GVBD (GVBD50)).

U251 = conditions: for GI50: U251, CNS Cancer
HCT-116 = conditions: for GI50: HCT-116, Colon Cancer
MALME-3M = conditions: for GI50: MALME-3M, Melanoma
T-47D = conditions: for GI50: T-47D, Breast Cancer
MCF7 = conditions: for GI50: MCF7, Breast Cancer
OVCAR-8 = conditions: for GI50: OVCAR-8, Ovarian Cancer
RPMI-8226 = conditions: for GI50: RPMI-8226, Leukemia
MDA-MB-231/ATCC = conditions: for GI50: MDA-MB-231/ATCC, Breast Cancer
M14 = conditions: for GI50: M14, Melanoma
NCI-H23 = conditions: for GI50: NCI-H23, Lung Cancer
SK-MEL-5 = conditions: for GI50: SK-MEL-5, Melanoma

13-(2-iodoimidazole)parthenolide [PNR-5-65]
CC50 (OVCAR-3): 50.8 µM | GI50 (OVCAR-3): 6.85 µM | CC50 (SK-OV-3): > 100 µM | GI50 (SK-OV-3): 47.3 µM | CC50 (BT-549): 55.3 µM | GI50 (BT-549): 15.9 µM | CC50 (UO-31): 50 µM | GI50 (UO-31): 10.8 µM | CC50 (OVCAR-4): 60 µM | GI50 (OVCAR-4): 13.2 µM | CC50 (CAKI-1): 49.5 µM | GI50 (CAKI-1): 6.61 µM | CC50 (NCI-H226): 62.3 µM | GI50 (NCI-H226): 15.4 µM | CC50 (UACC-257): 53.9 µM | GI50 (UACC-257): 12 µM | CC50 (SNB-75): > 100 µM | GI50 (SNB-75): 19.3 µM | CC50 (SN12C): 84.1 µM | GI50 (SN12C): 17.7 µM | CC50 (HT29): 61.5 µM | GI50 (HT29): 17.6 µM | Xenopus Oocyte Maturation Assay, Without Progesterone (Xenopus oocytes): Not an activator or inhibitor | Xenopus Oocyte Maturation Assay, With Progesterone (Xenopus oocytes): Not an activator or inhibitor | CC50 (U251): > 100 µM | GI50 (U251): 36.7 µM | CC50 (HCT-116): 49 µM | GI50 (HCT-116): 11.8 µM | CC50 (MALME-3M): 62.7 µM | GI50 (MALME-3M): 10.9 µM | CC50 (T-47D): 54.3 µM | GI50 (T-47D): 9.88 µM | CC50 (MCF7): > 100 µM | GI50 (MCF7): 9.79 µM | CC50 (OVCAR-8): 59.9 µM | GI50 (OVCAR-8): 16.6 µM | CC50 (RPMI-8226): > 100 µM | GI50 (RPMI-8226): 17 µM | CC50 (MDA-MB-231/ATCC): 59.6 µM | GI50 (MDA-MB-231/ATCC): 16.4 µM | CC50 (M14): 65.6 µM | GI50 (M14): 16.5 µM | CC50 (NCI-H23): > 100 µM | GI50 (NCI-H23): 23.7 µM | CC50 (SK-MEL-5): 95.6 µM | GI50 (SK-MEL-5): 18.5 µM

(E)-13-(3-thiopheno)parthenolide [PNR-5-53]
CC50 (OVCAR-3): > 100 µM | GI50 (OVCAR-3): 20.5 µM | CC50 (SK-OV-3): > 100 µM | GI50 (SK-OV-3): 44.9 µM | CC50 (BT-549): 88.2 µM | GI50 (BT-549): 20.1 µM | CC50 (UO-31): > 100 µM | GI50 (UO-31): 27.3 µM | CC50 (OVCAR-4): > 100 µM | GI50 (OVCAR-4): 24.3 µM | CC50 (CAKI-1): > 100 µM | GI50 (CAKI-1): 30.9 µM | CC50 (NCI-H226): > 100 µM | GI50 (NCI-H226): 30.2 µM | CC50 (UACC-257): > 100 µM | GI50 (UACC-257): 16.6 µM | CC50 (SNB-75): > 100 µM | GI50 (SNB-75): 21.5 µM | CC50 (SN12C): > 100 µM | GI50 (SN12C): 25.8 µM | CC50 (HT29): > 100 µM | GI50 (HT29): 27 µM | Xenopus Oocyte Maturation Assay, Without Progesterone (Xenopus oocytes): Not an activator or inhibitor | Xenopus Oocyte Maturation Assay, With Progesterone (Xenopus oocytes): Not an activator or inhibitor | CC50 (U251): > 100 µM | GI50 (U251): 21.7 µM | CC50 (HCT-116): > 100 µM | GI50 (HCT-116): 28.3 µM | CC50 (MALME-3M): > 100 µM | GI50 (MALME-3M): 22.5 µM | CC50 (T-47D): > 100 µM | GI50 (T-47D): 29.5 µM | CC50 (MCF7): > 100 µM | GI50 (MCF7): 20 µM | CC50 (OVCAR-8): > 100 µM | GI50 (OVCAR-8): 26.9 µM | CC50 (RPMI-8226): > 100 µM | GI50 (RPMI-8226): 19.7 µM | CC50 (MDA-MB-231/ATCC): 81.8 µM | GI50 (MDA-MB-231/ATCC): 16 µM | CC50 (M14): > 100 µM | GI50 (M14): 20.5 µM | CC50 (NCI-H23): > 100 µM | GI50 (NCI-H23): 23 µM | CC50 (SK-MEL-5): 60.4 µM | GI50 (SK-MEL-5): 16.3 µM
